In brackets after ≈: the same amount, converted by molar mass.
Tests used:
[1] = tested on: neutrophils from WT mice; assay: Transwell neutrophil migration assay towards CXCL2, WT neutrophils; assay type: cell-based, mouse; conditions: for CXCL2-induced neutrophil migration: WT neutrophils pre-treated 30 min, 10 nM CXCL2, RO6851228 at 0.01–1.0 μM
Description: As described previously, mouse neutrophils were isolated from the bone marrow of mice. Mice were euthanized, femur and tibia were dissected and flushed with ice-cold 1× Hanks balanced salt solution (HBSS; supplemented with […], pH7.5, and 0.5 mM EDTA; Invitrogen) through a sterile filter (70 μm). The suspension was centrifuged at 300× g for 12 min at 4 °C. EasySep™ neutrophil enrichment kit ([…] Technologies Inc., Vancouver, BC, Canada) was used to isolate neutrophils according to the manufacturer’s instructions. The isolated neutrophils were then washed once and the pelleted cells were suspended in RPMI (Invitrogen) containing 1% heat-inactivated fetal bovine serum (FBS, Invitrogen) and used immediately for neutrophil migration experiments or processed for adoptive transfer. The murine neutrophil isolation protocol routinely yields cell suspensions that are >95% pure and viable, as determined by cresyl violet and trypan blue exclusion, respectively.
Neutrophil migration assays were performed using a Transwell migration assay. Isolated neutrophils (1 × 10^5 cells/100 μL) from WT or CB2R^-/- mice were incubated with vehicle (0.01% DMSO), or various concentrations of RO8671304 or RO6851228 at 37 °C, 5% CO2 for 30 min. Cells were then loaded into the upper chamber of 3 μm Transwell inserts (Corning Life Sciences, Corning, NY, USA) coated with 5% FBS. Transwells were placed in 24-well plates containing RPMI (1% FBS) alone or 10^−8 M chemokine C–X–C motif ligand 2 (CXCL2)/[…] (Peprotech, Rocky Hill, NJ, USA). Plates were incubated for 1 h at 37 °C, 5% CO2. To determine the number of neutrophils that migrated from the top to the bottom chamber, the filter was removed and neutrophils in the lower chamber gently pipetted to evenly distribute and sink to the bottom of the pate. An Olympus inverted bright-field microscope with an Infinity 3 camera (Lumenera, Ottawa, ON, Canada) was used to photograph 12 random fields (10× magnification) of each well. The number of migrated neutrophils was then determined using ImageJ. […]

[2] = Kinetic lyophilization solubility assay; assay type: physicochemical; conditions: 0.05 M phosphate buffer, aqueous buffer, thermodynamic from solid; phosphate buffer pH 6.5
Description: The X-ray structure of CB2R complexed with the antagonist AM10257 (5zty) was used as a template to dock CB2R ligands. The docking experiments were performed with the software GOLD ([…]) with default settings. The best 10 docking poses for each compound were energy-minimized within the binding pocket using MOE ( molecular operating environment ver. 2014.09, Chemical Computing Group, Montreal, Canada) and examined visually to select the most reasonable docking mode with respect to molecular interactions and internal conformational strain. The final selection was based on checking consiste ncy with the available structure –activity relationship information.
Kinetic Lyophilization Solubility Assay
The solubility of a test compound in phosphate buffer at pH 6.5 from evaporated DMSO stock solution is measured over time, resulting in the kinetic solubility of the compound. Samples were prepared in duplicate from 10 mM DMSO stock solutions. […] The filtrate and its 1 :10 dilution were analyzed by direct UV measurement or by HPLC -UV. […]
Approximately 8.6 mg test compound per milliliter solvent/vehicle was stirred in HPLC vials (9 × 12 × 32 mm, Waters) at 350 rpm for 15 h. […] Addition of solid material was repeated up to 96 h or until residual solid particles could be detected. […] The filtrates were diluted in ethanol and analyzed for content by UPLC. […]

SMILES	IC50 ([1]; Neutrophil, towards 10 nM CXCL2, WT mouse neutrophils, read-out: IC50 for inhibition of neutrophil migration)	CXCL2-induced neutrophil migration [1]	solubility kinetic at 15 h [2]
CC(C)(C)c1nc(N2CC[C@H](O)C2)c2nnn(Cc3nnnn3C3CC3)c2n1 [RO6871304, (3S)-1-{5-tert-butyl-3-[(1-cyclopropyl-1H-tetrazol-5-yl)methyl]-3H-[1,2, 3]triazolo[4,5-d]pyrimidin-7-yl}pyrrolidin-3-ol]	6.6 nM	inhibited neutrophil migration towards CXCL2 in a dose-dependent fashion	–
Cc1nc([C@](C)(CC2CC2)NC(=O)c2cc(OCC(F)(F)F)c(C3CC3)cn2)no1 [RO6871085, 5-Cyclopropyl-N-[(2S)-1-cyclopropyl-2-(5-methyl-1,2,4-oxadiazol-3-yl)propan-2-yl]-4-(2,2,2-trifluoroethoxy)pyridine-2-carboxamide]	–	–	4.2 ± 0.1 µg/mL (≈ 9.9 µM)
CNC(=O)[C@@H](NC(=O)c1cc(OCC2(C)COC2)c(C2CC2)cn1)C(C)(C)C [RO6851228, 5-Cyclopropyl-N-[(2S)-3,3-dimethyl-1-(methylamino)-1-oxobutan-2-yl]-4-[(3-methyloxetan-3-yl)methoxy]pyridine-2-carboxamide]	–	did not affect CXCL2-induced neutrophil migration	174 ± 47 µg/mL (≈ 447 µM)

Source: paper PMC6767236, “Selective Cannabinoid 2 Receptor Agonists as Potential Therapeutic Drugs for the Treatment of Endotoxin-Induced Uveitis” (Molecules, 2019)
